# Assay results published in US9550792B2, “Polycyclic substituted pyrazole kinase activity inhibitors and use thereof” (priority 2013, dated 2017).
# “And” between values parts separate entries of the source, which are not always exact repeats. Identical values can stand only once. Like-named read-outs stand apart in the source and are kept apart here.
# What was measured:
# [1] = Pharmacokinetics after single oral dose in rats; format: in vivo, Wistar rat
# Method: 300 μL blood collected from the rat was mixed with 30 μL methanol and 2 mL ethyl acetate. The samples were vortexed for 3 min and centrifuged at 4000 rpm for 15 min. The supernatant was introduced into another centrifugal tube. The lower layer was repeatedly extracted and then the supernatants were combined and dried with nitrogen gas. After redissolution with 150 μL methanol, they were filtered by 0.22 μm membrane and then subjected to analysis with a injection volume of 20 μL.
# An amount of compound was taken accurately to prepare CMC-Na aqueous solution containing 3 mg/mL of drug. 12 healthy male Wister rats were randomly assigned to two groups, each group including 6 rats. The first group was administrated orally compound 1. The second group was administrated orally compound 2. The doses were both 30 mg/kg (corresponding to 2 mL for each rat). The rats were fasting for 12 h before administration and free access to water. 0.6 mL blood samples were collected at 0.5, 1, 1.5, 2, 2.5, 3, 5, 8, 12 and 24 h after drug administration from the venous sinuses and added into EP tubes which were rinsed with heparin sodium previously. The samples were centrifuged at 4,000 r/min for 15 min and the upper plasma were obtained. 300 μL plasma was subjected to analysis and the chromatogram and peak area were recorded. The plasma concentrations of compounds 1 and 2 were calculated to give average concentration-time curve.
# DAS 2.0 program was used to analyze plasma concentration vs. time data after s single oral dose (Table 6, 7). Fitting and the AIC methods were used to determine the model. The analysis was based on the principle that the larger fitting and the smaller AIC, the better model. The oral administration was consistent with the two-compartment model. The statistical distance parameter is used to compare the 2 compounds for the pharmacokinetic parameters.
# S180 grafting tumor = assay: Inhibition to S180 grafting tumor in animal; format: in vivo, ICR mouse; conditions: for Body weight After administration / Tumor inhibition / Tumor weight: 7 administrations; for Tumor inhibition / Tumor weight: d8
# Method: ICR mouse was inoculated with solid tumor according to tumor grafting process (tumor piece was weighed under sterile condition, homogenized with glass tissue homogenizer, placed within a sterile container, to which was added physiological saline to prepare 1:3 cell suspension. The container was placed on ice and aspirated and the cells were mixed homogeneously before each aspiration. Each mouse was inoculated subcutaneously 0.2 mL at right fore axilla). […] The mice were administered intravenously, once a day and 7 administrations in total. The administration volume was 0.4 ml/20 g. The mice bearing tumor were sacrificed 8 days after inoculation (d8). The tumor tissue was separated and weighed. The data was analyzed with statistics method (t-test).
# Dose setting: 5 groups in total.
# leukemia cell line NB4 = assay: Anti-tumor activity in vitro, MTT method; conditions: 48 h, read-out: NB4 (IC50/μM)
# Method: (§1) MTT method: the dehydrogenase associated with NADP in the mitochondria of living cell is capable of reducing exogenous MTT into insoluble bluish violet crystal (Formazan), which is precipitated in the cell. […] DMSO or Triple liquid (10% SDS-5% isobutanol-0.01 mol/L HCl) is used to dissolve the crystal in the cell. The OD determined at 570 nm by a microplate reader can reflect the amount of the living cell indirectly.
# (§2) The crystal is dissolved with DMSO and the detection is performed on a microplate reader.
# [2] = tested on: umbilical cord vein endothelium cell line HUVEC; assay: Anti-tumor activity in vitro, MTT method; conditions: Homo sapiens, 48 h, read-out: HUVEC (IC50/μM)
# Method: as §1, §2
# [3] = tested on: breast cancer cell line MCF-7; assay: Anti-tumor activity in vitro, MTT method; conditions: Homo sapiens, MCF7, 48 h, read-out: MCF7 (IC50/μM)
# Method: as §1, §2
# [4] = tested on: stomach cancer cell line MGC803; assay: Anti-tumor activity in vitro, MTT method; conditions: Homo sapiens, MGC-803, 48 h, read-out: MGC803 (IC50/μM)
# Method: as §1, §2
# [5] = tested on: resistant breast cancer cell line MCF-7; assay: Anti-tumor activity in vitro, MTT method; conditions: Homo sapiens, MCF7, 48 h, read-out: Resistant MCF7 (IC50/μM)
# Method: as §1, §2
# [6] = tested on: stomach cancer cell line BSG823; assay: Anti-tumor activity in vitro, MTT method; conditions: 48 h, read-out: BSG823 (IC50/μM)
# Method: as §1, §2
# leukemia cell line K562 = assay: Anti-tumor activity in vitro, MTT method; conditions: Homo sapiens, K562, 48 h, read-out: K562 (IC50/μM)
# Method: as §1, §2
# [7] = tested on: lung cancer cell line A549; assay: Anti-tumor activity in vitro, MTT method; conditions: Homo sapiens, A549, 48 h, read-out: A549 (IC50/μM)
# Method: as §1, §2
# [8] = tested on: liver cancer cell line HEPG2; assay: Anti-tumor activity in vitro, MTT method; conditions: Homo sapiens, HepG2, 48 h, read-out: HEPG2 (IC50/μM)
# Method: as §1, §2
# [9] = tested on: breast cancer cell line MDA231; assay: Anti-tumor activity in vitro, MTT method; conditions: Homo sapiens, MDA-MB-231, 48 h, read-out: MDA231 (IC50/μM)
# Method: as §1, §2
# [10] = male, Wistar, plasma, rat, oral 30 mg/kg
# [11] = 7.5 mg/kg intravenously once a day
# [12] = 15 mg/kg intravenously once a day
# [13] = 30 mg/kg intravenously once a day
smiles,measurement,setting,value
"CN1CCN(Cc2ccc(NC(=O)c3n[nH]cc3Nc3ncnc4sccc34)cc2)CC1 [Compound I-1, 4-(4-thieno[2,3-d]pyrimidinylamino)-N-(4-((4-methyl-1-piperazinyl)methyl)phenyl)-1H-3-pyrazole carboxamide]",Cmax,[1]; [10],241 ± 103 ng/mL
same,Tmax,[1]; [10],5.5 ± 2.29 h
same,half-life,[1]; [10],45.8 ± 29.1 h
same,AUC(0-t),"[1]; male, Wistar, plasma, rat, oral 30 mg/kg, read-out: AUC 0-24",3350 ± 468 ng·h/mL
same,MRT last,"[1]; male, Wistar, plasma, rat, oral 30 mg/kg, read-out: MRT 0-24",11.6 ± 1.09 h
same,concentration at 0.5 h,"[1]; male, Wistar, rat, plasma, po, 30 mg/kg, mean of rats, oral 30 mg/kg, time 0.5 h, read-out: Plasma concentration, mean",72.7 ng/mL
same,concentration at 1 h,"[1]; male, Wistar, rat, plasma, po, 30 mg/kg, mean of rats, oral 30 mg/kg, time 1 h, read-out: Plasma concentration, mean",82.8 ng/mL
same,concentration at 2 h,"[1]; male, Wistar, rat, plasma, po, 30 mg/kg, mean of rats, oral 30 mg/kg, time 2 h, read-out: Plasma concentration, mean",103 ng/mL
same,concentration at 2.5 h,"[1]; male, Wistar, rat, plasma, po, 30 mg/kg, mean of rats, oral 30 mg/kg, time 2.5 h, read-out: Plasma concentration, mean",113 ng/mL
same,concentration at 3 h,"[1]; male, Wistar, rat, plasma, po, 30 mg/kg, mean of rats, oral 30 mg/kg, time 3 h",154 ng/mL
same,concentration at 5 h,"[1]; male, Wistar, rat, plasma, po, 30 mg/kg, mean of rats, oral 30 mg/kg, time 5 h",164 ng/mL
same,concentration at 8 h,"[1]; male, Wistar, rat, plasma, po, 30 mg/kg, mean of rats, oral 30 mg/kg, time 8 h, read-out: Plasma concentration, mean",195 ng/mL
same,concentration at 12 h,"[1]; male, Wistar, rat, plasma, po, 30 mg/kg, mean of rats, oral 30 mg/kg, time 12 h, read-out: Plasma concentration, mean",134 ng/mL
same,concentration at 24 h,"[1]; male, Wistar, rat, plasma, po, 30 mg/kg, mean of rats, oral 30 mg/kg, time 24 h",123 ng/mL
same,concentration at 0.5 h,"[1]; male, Wistar, rat, plasma, po, 30 mg/kg, rat No. 1-6, oral 30 mg/kg, time 0.5 h, read-out: Plasma concentration, individual rats",68.8 ng/mL
same,concentration at 1 h,"[1]; male, Wistar, rat, plasma, po, 30 mg/kg, rat No. 1-6, oral 30 mg/kg, time 1 h, read-out: Plasma concentration, individual rats",105 ng/mL
same,concentration at 2 h,"[1]; male, Wistar, rat, plasma, po, 30 mg/kg, rat No. 1-6, oral 30 mg/kg, time 2 h, read-out: Plasma concentration, individual rats",114 ng/mL
same,concentration at 2.5 h,"[1]; male, Wistar, rat, plasma, po, 30 mg/kg, rat No. 1-6, oral 30 mg/kg, time 2.5 h, read-out: Plasma concentration, individual rats",100 ng/mL
same,concentration at 8 h,"[1]; male, Wistar, rat, plasma, po, 30 mg/kg, rat No. 1-6, oral 30 mg/kg, time 8 h, read-out: Plasma concentration, individual rats",157 ng/mL
same,concentration at 12 h,"[1]; male, Wistar, rat, plasma, po, 30 mg/kg, rat No. 1-6, oral 30 mg/kg, time 12 h, read-out: Plasma concentration, individual rats",108 ng/mL
same,"Plasma concentration, individual rats","[1]; rat No. 1-6, oral 30 mg/kg, time 0.5 h, 30 mg/kg",68.95 ng*ml/1 and 65.08 ng*ml/1 and 76.41 ng*ml/1 and 80.51 ng*ml/1 and 76.52 ng*ml/1
same,"Plasma concentration, individual rats","[1]; rat No. 1-6, oral 30 mg/kg, time 1 h, 30 mg/kg",65.58 ng*ml/1 and 73.81 ng*ml/1 and 81.17 ng*ml/1 and 80.91 ng*ml/1 and 90.92 ng*ml/1
same,"Plasma concentration, individual rats","[1]; rat No. 1-6, oral 30 mg/kg, time 2 h, 30 mg/kg",97.96 ng*ml/1 and 100.94 ng*ml/1 and 86.23 ng*ml/1 and 86.97 ng*ml/1 and 132.81 ng*ml/1
same,"Plasma concentration, individual rats","[1]; rat No. 1-6, oral 30 mg/kg, time 2.5 h, 30 mg/kg",96.8 ng*ml/1 and 113.35 ng*ml/1 and 104.16 ng*ml/1 and 106.91 ng*ml/1 and 158.41 ng*ml/1
same,"Plasma concentration, individual rats","[1]; rat No. 1-6, oral 30 mg/kg, time 3 h, 30 mg/kg",149.67 ng*ml/1 and 112.43 ng*ml/1 and 125.86 ng*ml/1 and 78.87 ng*ml/1 and 266.46 ng*ml/1 and 191.06 ng*ml/1
same,"Plasma concentration, individual rats","[1]; rat No. 1-6, oral 30 mg/kg, time 5 h, 30 mg/kg",174.04 ng*ml/1 and 159.33 ng*ml/1 and 115.59 ng*ml/1 and 172.92 ng*ml/1 and 127.6 ng*ml/1 and 232.81 ng*ml/1
same,"Plasma concentration, individual rats","[1]; rat No. 1-6, oral 30 mg/kg, time 8 h, 30 mg/kg",150.59 ng*ml/1 and 233.26 ng*ml/1 and 151.83 ng*ml/1 and 271.51 ng*ml/1 and 205.77 ng*ml/1
same,"Plasma concentration, individual rats","[1]; rat No. 1-6, oral 30 mg/kg, time 12 h, 30 mg/kg",135.84 ng*ml/1 and 153.29 ng*ml/1 and 135.94 ng*ml/1 and 110.59 ng*ml/1 and 162.93 ng*ml/1
same,"Plasma concentration, individual rats","[1]; rat No. 1-6, oral 30 mg/kg, time 24 h, 30 mg/kg",126.6 ng*ml/1 and 105.83 ng*ml/1 and 167.23 ng*ml/1 and 133.16 ng*ml/1 and 79.81 ng*ml/1 and 123.91 ng*ml/1
same,pharmacokinetic parameters (in words),"[1]; rat, oral 30 mg/kg",acceptable
same,Body weight After administration,S180 grafting tumor; [11],24.00 ± 0.75 g
same,Tumor inhibition,S180 grafting tumor; [11],36.94%
same,Tumor weight,S180 grafting tumor; [11],0.74 ± 0.19 g
same,effect on S180 tumor growth compared to the model control group (in words),"S180 grafting tumor; 7.5 mg/kg, P<0.05",significant inhibitory effect
same,Body weight After administration,S180 grafting tumor; [12],20.00 ± 1.94 g
same,Tumor inhibition,S180 grafting tumor; [12],45.2%
same,Tumor weight,S180 grafting tumor; [12],0.63 ± 0.11 g
same,effect on S180 tumor growth compared to the model control group (in words),"S180 grafting tumor; 30 mg/kg and 15 mg/kg, P<0.01",very significant inhibitory effect
same,effect on the body weight of experimental animals (in words),"S180 grafting tumor; 30 mg/kg and 15 mg/kg, P<0.05",significant inhibitory effect on the body weight
same,Body weight After administration,S180 grafting tumor; [13],20.43 ± 3.20 g
same,Tumor inhibition,S180 grafting tumor; [13],55.5%
same,Tumor weight,S180 grafting tumor; [13],0.52 ± 0.25 g
same,IC50,leukemia cell line NB4,0.74 µM
same,IC50,[2],2.54 µM
same,IC50,[3],0.42 µM
same,IC50,[4],2.27 µM
same,IC50,[5],3.73 µM
same,IC50,[6],20.7 µM
same,IC50,leukemia cell line K562,3.2 µM
same,IC50,[7],50.3 µM
same,IC50,[8],25.2 µM
same,IC50,[9],5.45 µM
